Measurements published in PubChem BioAssay (NCI).
Where “and” joins values, the source holds several entries; their conditions need not be identical. Identical values can stand only once.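 Tested at 5 concentrations; 48 h exposure; 96-well plates; endpoints linearly interpolated, else capped at highest concentration. At the GI50, growth is halved. The concentration for full growth arrest is given as TGI.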

Assays:
Assay in all cases: NCI-60 cell line screen, 48 h
NCI-H226 lung = system: NCI-H226 lung
LOX IMVI melanoma = system: LOX IMVI melanoma
BT-549 breast = system: BT-549 breast
RPMI-8226 leukemia = system: RPMI-8226 leukemia
K-562 leukemia = system: K-562 leukemia
MALME-3M melanoma = system: MALME-3M melanoma
HL-60(TB) leukemia = system: HL-60(TB) leukemia
MOLT-4 leukemia = system: MOLT-4 leukemia
SK-OV-3 ovarian = system: SK-OV-3 ovarian
UACC-257 melanoma = system: UACC-257 melanoma

Row | Structure (SMILES) | GI50 (NCI-H226 lung) [µM] | TGI (NCI-H226 lung) | GI50 (LOX IMVI melanoma) [nM] | TGI (LOX IMVI melanoma) | GI50 (BT-549 breast) [µM] | TGI (BT-549 breast) | GI50 (RPMI-8226 leukemia) | TGI (RPMI-8226 leukemia) | GI50 (K-562 leukemia) | TGI (K-562 leukemia) | GI50 (MALME-3M melanoma) [nM] | TGI (MALME-3M melanoma) [µM] | GI50 (HL-60(TB) leukemia) | TGI (HL-60(TB) leukemia) | GI50 (MOLT-4 leukemia) [µM] | TGI (MOLT-4 leukemia) | GI50 (SK-OV-3 ovarian) [nM] | TGI (SK-OV-3 ovarian) | GI50 (UACC-257 melanoma) [µM] | TGI (UACC-257 melanoma)
1 | N#CSc1c[nH]c2cccc(/C=C/C(=O)/C=C(O)/C=C/c3cccc4[nH]cc(SC#N)c34)c12 | 0.607 | 1.34 µM | 148 | 0.547 µM | 0.5 | 1.63 µM | 128 nM | 0.9 µM | 148 nM | > 33.3 µM | 520 | 1.07 | 437 nM | 1.75 µM | 0.322 | 1.48 µM | 1320 | 5.23 µM | 0.944 | 3.38 µM
2 | CN(C)c1ccc(-c2cc(-c3cccc(NS(C)(=O)=O)c3)nc(N)c2C#N)cc1 | 0.045 | 17.6 µM | 46.6 | 13.5 µM | 0.0645 | 4.65 µM | 41.6 nM | 2.55 µM | 37.2 nM | 48.5 µM | 948 | 47.9 | 36.2 nM | 0.411 µM | 0.0822 | > 58.4 µM | 33 | 1.74 µM | 0.0563 | 44.6 µM
3 | c1c[nH]c(CN2CCN(Cc3ncc[nH]3)CC2)n1 | – | > 100 µM | – | > 100 µM | – | > 100 µM | – | > 100 µM | – | – | – | > 100 | – | > 100 µM | – | > 100 µM | – | > 100 µM | – | > 100 µM
4 | OC1(c2ccccc2)c2ccccc2N(c2ccccc2)c2ccc(Cl)cc21 (stereo unspecified) | – | – | 179 | 0.348 µM | 0.367 | 1.29 µM | 216 nM | 0.862 µM | 180 nM | 1.14 µM | 237 | 0.643 | 251 nM | 0.739 µM | 0.294 | 1.25 µM | 608 | 1.39 µM | 0.201 | 0.72 µM
5 | O=c1[nH]c(-c2ccncc2)nc2sc3c(c12)CCCCCC3 | > 100 | > 100 µM | > 100000 | > 100 µM | > 100 | > 100 µM | > 100000 nM | > 100 µM | > 100000 nM | > 100 µM | > 100000 | > 100 | > 100000 nM | > 100 µM | > 100 | > 100 µM | – | – | > 100 | > 100 µM
6 | Fc1cnccc1-c1nc2ccc3[nH]ncc3c2c2c1CCCC2 | 2.71 | > 100 µM | 1580 | 12.6 µM | 1.28 | 7.74 µM | 1200 nM | 6.33 µM | 2630 nM | > 100 µM | 2760 | 9.06 | 2200 nM | 7.3 µM | – | – | 342 | 3.66 µM | 5.48 | > 100 µM
7 | CC1(C)N=C(N)N=C(N)N1c1cccc(CC(=O)Nc2ccccc2)c1 | > 100 | > 100 µM | 4410 | > 100 µM | 45.1 | > 100 µM | – | – | 2870 nM | > 100 µM | 58600 | > 100 | 6000 nM | > 100 µM | 25.2 | > 100 µM | > 100000 | > 100 µM | > 100 | > 100 µM
8 | CC(C)CC(=O)O[C@H]1C(=O)O[C@@H]2C[C@H]3[C@H](C)C(=O)C(O[C@@H]4O[C@H](CO)[C@@H](O)[C@H](O)[C@H]4O)=C[C@]3(C)[C@H]3[C@@H](O)[C@H](O)[C@]4(C(=O)O)OC[C@]32[C@@H]14 | 29.2 | 92 µM | 38700 | > 100 µM | – | > 100 µM | – | – | 24000 nM | > 100 µM | 22800 | 56.3 | 41300 nM | > 100 µM | 18.9 | > 100 µM | – | > 100 µM | > 100 | > 100 µM
9 | Nc1ncnc2c1ncn2C1SC(CO)C(O)C1O (stereo unspecified) | 66.5 | > 100 µM | 18500 | 48.4 µM | 12.7 | 43.2 µM | 44100 nM | > 100 µM | 16900 nM | > 100 µM | – | – | 30300 nM | 76.2 µM | > 100 | > 100 µM | 17300 | 59.6 µM | > 100 | > 100 µM
10 | CC[C@@]12CC(C(=O)OC)=C3Nc4ccccc4[C@@]34CCN(C[C@H]3O[C@H]31)[C@@H]24 | – | – | 34800 | > 100 µM | 43.5 | > 100 µM | 23500 nM | > 100 µM | 23200 nM | > 100 µM | 30500 | > 100 | 24700 nM | 81 µM | 27.9 | > 100 µM | – | – | 66.7 | > 100 µM
11 | O=c1c2cc(F)ccc2sc2c(NCCCNCCO)nc3ccc(F)cc3c12 | 1.76 | 3.52 µM | 1570 | 3.06 µM | 11.1 | 26.7 µM | 2300 nM | 5.1 µM | 2340 nM | 6.68 µM | 1630 | 3.15 | – | – | – | – | – | – | 1.98 | 4.03 µM
12 | O=C(N=Nc1c(O)[nH]c2c(Cl)cc(Cl)cc12)C(=O)Nc1cccc(C(F)(F)F)c1 | – | > 100 µM | – | > 100 µM | – | > 100 µM | – | – | – | – | – | > 100 | – | > 100 µM | – | > 100 µM | – | > 100 µM | – | > 100 µM
13 | O=C(CNC(=O)c1cccc2ccccc12)Nc1ccccc1Oc1ccc(O)cc1 | 4.74 | > 25 µM | 1720 | > 25 µM | 1.63 | > 25 µM | 970 nM | 10.4 µM | 497 nM | > 25 µM | – | – | 705 nM | 2.06 µM | 1.21 | > 25 µM | 1590 | > 25 µM | > 25 | > 25 µM
14 | O=C(/C=C/c1ccccc1)c1ccccn1 | – | 37.5 µM and > 100 µM | – | 23.9 µM and 34.8 µM | – | 37.4 µM and 52.4 µM | 5710 nM and 15900 nM | 31.6 µM and 81.1 µM | 4360 nM and 21600 nM | 36.6 µM and > 100 µM | – | – | 2550 nM and 16400 nM | 53.6 µM and 84.8 µM | – | 61.4 µM and 72.6 µM | – | 67 µM and > 100 µM | – | 26.9 µM and 32.3 µM
15 | CCN(CC)CCCC(C)Nc1ccnc2cc(OC)ccc12 (stereo unspecified) | 22.2 | 46.6 µM | 29500 | > 100 µM | 18.7 | 37 µM | 18600 nM | 42 µM | 33700 nM | > 100 µM | 22100 | 50.2 | – | – | 25.9 | 74.5 µM | 24900 | 52.3 µM | 18.2 | 34.2 µM
